Values joined by “and” are separate entries in the source; they are usually repeats but may differ in a detail not shown here. Equal entries are not always repeated.
Assays:
[1] = tested on: Hbb^th3/+ mouse model of β-thalassemia intermedia; test: Combination study: serum iron (MULTIGENT Iron assay), transferrin ELISA and calculated TSAT; format: in vivo
Protocol: […] Anesthetized animals were subsequently euthanized by cervical dislocation.
Serum levels of iron were determined in triplicates using MULTIGENT Iron assay (Abbott Diagnostics, Cat. 6K95). Serum Transferrin (TO was measured in duplicates using a mouse-specific ELISA according to the manufacturer's instructions (Abcam, Cat. ab157724). Transferrin saturation (TSAT) was calculated using the formula: […]

[2] = tested on: Hbb^th3/+ mouse model of β-thalassemia intermedia; test: Combination study: serum EPO (DuoSet ELISA); format: in vivo
Protocol: (§1) On day 23 (study end) 1 hour after dosing blood was collected by retro-orbital bleeding from pre-terminally anesthetized mice into BD Microtainer Tubes (Cat. 365967 and 365975) for determination of serum iron, transferrin, erythropoietin and compound exposure. Anesthetized animals were subsequently euthanized by cervical dislocation.
(§2) [formula] Serum EPO was measured using a mouse-specific DuoSet ELISA according to the manufacturer's instructions (R&D Systems, Cat. DY959). Plasma concentrations of Fpn127 and DFX were measured at GVK Biosciences, Hyderabad, IN. Flow Cytometric Analysis of Intracellular ROS, Mitochondria, and PS Exposure

[3] = tested on: Hbb^th3/+ mouse model of β-thalassemia intermedia; test: Combination study: erythroid differentiation stages in spleen by flow cytometry (Ter119/CD44/CD71); format: in vivo
Text: Distinct stages of erythroid cell differentiation in spleens of female mice were identified by flow cytometry (CANTOII cytometer, BD Biosciences) using PE-conjugated rat anti-mouse CD71 (transferrin receptor-1, eBioscience, Cat. 12-0711), APC-conjugated rat anti-mouse Ter119 (erythroid lineage marker, eBioscience, Cat. 17-5921) and APC-Cy7-conjugated rat anti-mouse CD44 (adhesion molecule that progressively decreases on the surface of developing erythroid cells, BioLegend. Cat. 103028) antibodies. Data were analyzed using FlowJo® software (FlowJo. LLC, version 10.1) Serum Parameters

[4] = Combination study: plasma concentrations of Fpn127 and DFX (LC-MS/MS); format: in vivo, mouse
Protocol: as §1, §2
Plasma was collected 1 hour after dosing of DFX on day 23 for determination of compound concentration by LC-MS/MS. Plasma exposure of DFX was similar in animals dosed with DFX alone or in combination with Fpn127 (FIG. 11, Table 12). […] As expected, plasma levels of Fpn127 were low as plasma was sampled approximately 20 h after the last dose of Fpn127.

[5] = tested on: Hbb^th3/+ mouse model of β-thalassemia intermedia; settings: in vivo
Protocol: The aim of this study was to test whether the concurrent use of the iron chelator DFX administered once daily (QD) alone at 30 mg/kg or in combination with Fpn127 administered QD at 120 mg/kg for 3 weeks is causing any therapeutic interactions in a mouse model of β-thalassemia intermedia (Hbb^th3/+; B6; 129P—b1tm1Unc-b2tm1Unc/J, Jackson Laboratories, Stock Number: 002683).
Animals were euthanized 1 h after the last dose of DFX on study day 23 (dosing day 17).
On the final study day (day 23), spleen, liver, and kidneys were collected and snap frozen in liquid nitrogen for further analysis, as outlined below. Wet weight of spleen, liver, and kidneys were recorded.
Content of total Fe was determined in pieces of spleens, livers, and kidneys by ICP-OES in the Analytical Development group of Vifor (International) Ltd., St. Gallen.
Individual wet weights of organs were recorded. Individual values of total Fe were measured in livers, spleens, and kidneys. Individual values of total Fe content and concentration were calculated. Mean±SD of total Fe concentration and content in livers, spleens, and kidneys was calculated for each group.

[6] = tested on: Hbb^th3/+ mouse model of β-thalassemia intermedia; test: Combination study: hemoglobin (HemoCue photometer); format: in vivo; settings: for Hb concentration: th3/+ mice, Fpn127 120 mg/kg QD p.o., mean
Protocol: (§3) One day after switching to lid a blood sample was taken by tail vein incision to determine the baseline Hb levels. Hb was measured using a HaemoCue® device. Hb was also measured on days 8, 15, and 22 in the morning before dosing. The animals were dosed p.o. D with 30 mg/kg DFX in 30% Kolliphor, 120 mg/kg Fpn127 in 0.5% C, or both for a total of 17 doses during the 23 days of study. 30% Kolliphor and 0.5% C were dosed as vehicles. The dose of DFX was administered at the beginning of the dark cycle (active phase) at 9:00 followed by 3 h of access to lid. Then, mice were dosed with Fpn127 (or 0.5% C) and were given access to sd for a 6 h period before switched back to lid. On the dosing was paused and mi had access to lid ad libitum.
Hb was measured on days 1, 8, 15 and 22. Individual Hb values were determined at the starting day of the experiment (day 1) and weekly thereafter during the experimental phase in the morning before the first daily dose. A blood sample was taken by tail vein incision and Hb was measured using a HemoCue® DM201 Hb photometer.

[7] = Combination study DFX/Fpn127: clinical observations, mortality and body weight; format: in vivo, mouse; settings: for BW: th3/+ mice, mean
Protocol: as §3
Animals and their cages were checked daily by the experimenter during the study on working days. During the experimental phase, animals were weighted minimum once per week and scored according to their clinical symptoms: BW, general behavior and activity, appearance of hair coat, eyes, and nose. Clinical observations were recorded when present on separate score sheets.
BW was recorded once before the start of the experimental phase on day −1. During the experimental phase, individual BW were recorded 1 to 2 times per week to calculate the dosing volume and to monitor weight loss.

[8] = percent of parent Ter119+ spleen cells, female th3/+ mice, DFX 30 mg/kg QD, Fpn127 120 mg/kg QD p.o., end of study, mean

Question: For `O=C(NCc1ncccc1F)c1coc(CCNCCc2nc3ccccc3[nH]2)n1` [Fpn127], which “effect on TSAT” value ([1]; Hbbth3/+ mice, day 23 (FIG. 10)) is on record?
Answer: Its value is “significantly decreased”.

Question: What about the TSAT ([1]; calculated from Tf and serum iron, th3/+ mice, day 23, 1 h after last DFX dose, approx. 20 h after last Fpn127 dose, all animals, mean) of the same compound?
Answer: Its TSAT is 17.7%.

Question: And the “effect on serum iron vs vehicle treated th3/+ and WT animals” value ([1]; day 23, last Fpn127 dose given 20 h before (FIG. 10))?
Answer: The value was “significantly reduced”.

Question: What about the serum iron ([1]; th3/+ mice, day 23, 1 h after last DFX dose (30 mg/kg), approx. 20 h after last Fpn127 dose (120 mg/kg), all animals, mean) of the same compound?
Answer: The serum iron was 19.9 ± 3.3 µM and 19.9 µM.

Question: And the “effect on EPO levels” value ([2]; Hbbth3/+ animals, day 23 (FIG. 10))?
Answer: Its value is “reduced EPO levels”.

Question: And the EPO ([2]; serum, th3/+ mice, day 23, DFX 30 mg/kg QD, Fpn127 120 mg/kg QD p.o., all animals, mean)?
Answer: Its EPO is 3938 ± 1167 pg/mL and 3938 pg/mL.

Question: What about the “RBC percentage in spleen” value ([3]; Hbbth3/+ mice (FIG. 9)) of the same compound?
Answer: The value was “increased”.

Question: And the “percentage of immature erythroid cells in spleen” value ([3]; Hbbth3/+ mice (FIG. 9))?
Answer: Its value is “markedly reduced”.

Question: And the “basophilic erythroblasts, frequency of parent” value [3, 8]?
Answer: Its value is 4.94%.

Question: What about the “mature erythrocytes, frequency of parent” value [3, 8] of the same compound?
Answer: Its value is 53.52%.

Question: What about the “orthochromatic erythroblasts, frequency of parent” value [3, 8] of the same compound?
Answer: Its value is 14.65%.

Question: And the “polychromatic erythroblasts, frequency of parent” value [3, 8]?
Answer: The value was 9.44%.

Question: What about the “pro-erythroblasts, frequency of parent” value [3, 8] of the same compound?
Answer: Its value is 1.74%.

Question: And the “plasma levels of Fpn127” value ([4]; approximately 20 h after the last dose of Fpn127)?
Answer: The value was “low”.

Question: And the “plasma exposure of Fpn127, in presence vs absence of DFX” value ([4]; day 23 (FIG. 11))?
Answer: The value was “comparable”.

Question: And the “Plasma exposure of Fpn127 at the end of the study (mean)” value ([4]; th3/+ mice, all animals, plasma collected on day 23, approximately 20 h after the last dose of Fpn127, LC-MS/MS)?
Answer: The value was 68 ng/mL.

Question: What about the “effect on kidney weight vs vehicle-treated Hbbth3/+ mice” value [5] of the same compound?
Answer: Its value is “no effect on kidney weight”.

Question: And the “effect on liver weight vs vehicle-treated Hbbth3/+ mice” value [5]?
Answer: Its value is “no effect on liver weight”.

Question: What about the “change of Hb levels compared to vehicle-treated mice” value ([6]; Hbb^th3/+ mice, by the study end, Fpn127 120 mg/kg QD, DFX 30 mg/kg QD) of the same compound?
Answer: The value was 13 g/L.

Question: And the “Hb levels during the study duration” value ([6]; Hbbth3/+ animals (FIG. 6))?
Answer: Its value is “increased with time”.

Question: What about the Hb concentration ([6]; DFX 30 mg/kg QD, day 1 (before dosing), all animals) of the same compound?
Answer: The Hb concentration was 85 g/L.

Question: What about the Hb concentration ([6]; DFX 30 mg/kg QD, day 1 (before dosing), females) of the same compound?
Answer: The Hb concentration was 85 ± 4 g/L and 85 g/L.

Question: And the Hb concentration ([6]; DFX 30 mg/kg QD, day 1 (before dosing), males)?
Answer: Its Hb concentration is 85 ± 6 g/L and 85 g/L.

Question: What about the Hb concentration ([6]; DFX 30 mg/kg QD, day 8, all animals) of the same compound?
Answer: Its Hb concentration is 92 g/L.

Question: What about the Hb concentration ([6]; DFX 30 mg/kg QD, day 8, females) of the same compound?
Answer: The Hb concentration was 93 g/L.

Question: And the Hb concentration ([6]; DFX 30 mg/kg QD, day 8, males)?
Answer: The Hb concentration was 90 g/L.

Question: And the Hb concentration ([6]; DFX 30 mg/kg QD, day 15, all animals)?
Answer: Its Hb concentration is 96 g/L.

Question: What about the Hb concentration ([6]; DFX 30 mg/kg QD, day 15, females) of the same compound?
Answer: The Hb concentration was 99 g/L.

Question: What about the Hb concentration ([6]; DFX 30 mg/kg QD, day 15, males) of the same compound?
Answer: The Hb concentration was 93 g/L.

Question: And the Hb concentration ([6]; DFX 30 mg/kg QD, day 22, all animals)?
Answer: The Hb concentration was 98 g/L.

Question: What about the Hb concentration ([6]; DFX 30 mg/kg QD, day 22, females) of the same compound?
Answer: Its Hb concentration is 101 g/L.

Question: And the Hb concentration ([6]; DFX 30 mg/kg QD, day 22, males)?
Answer: The Hb concentration was 95 g/L.

Question: And the “tolerability / clinical symptoms” value ([7]; Hbb^th3/+ mice, DFX 30 mg/kg QD, Fpn127 120 mg/kg QD p.o., 17 doses in 23 days)?
Answer: Its value is “generally well tolerated”.

Question: What about the “effect on BW vs vehicle-treated Hbb^th3/+ mice or WT mice” value ([7]; males and females, once daily for the duration of the study (d22)) of the same compound?
Answer: The value was “no effect on BW”.

Question: What about the BW ([7]; DFX 30 mg/kg QD, Fpn127 120 mg/kg QD p.o., day 1, all animals) of the same compound?
Answer: The BW was 22.2 g.

Question: And the BW ([7]; DFX 30 mg/kg QD, Fpn127 120 mg/kg QD p.o., day 1, females)?
Answer: Its BW is 19.4 ± 1.0 g and 19.4 g.

Question: What about the BW ([7]; DFX 30 mg/kg QD, Fpn127 120 mg/kg QD p.o., day 1, males) of the same compound?
Answer: Its BW is 25.1 ± 1.0 g and 25.1 g.

Question: What about the BW ([7]; DFX 30 mg/kg QD, Fpn127 120 mg/kg QD p.o., day 3, all animals) of the same compound?
Answer: The BW was 23.6 g.

Question: What about the BW ([7]; DFX 30 mg/kg QD, Fpn127 120 mg/kg QD p.o., day 3, females) of the same compound?
Answer: The BW was 20.3 g.

Question: What about the BW ([7]; DFX 30 mg/kg QD, Fpn127 120 mg/kg QD p.o., day 3, males) of the same compound?
Answer: Its BW is 26.9 g.

Question: What about the BW ([7]; DFX 30 mg/kg QD, Fpn127 120 mg/kg QD p.o., day 7, all animals) of the same compound?
Answer: The BW was 23.1 g.

Question: And the BW ([7]; DFX 30 mg/kg QD, Fpn127 120 mg/kg QD p.o., day 7, females)?
Answer: The BW was 19.8 g.

Question: What about the BW ([7]; DFX 30 mg/kg QD, Fpn127 120 mg/kg QD p.o., day 7, males) of the same compound?
Answer: Its BW is 26.5 g.

Question: And the BW ([7]; DFX 30 mg/kg QD, Fpn127 120 mg/kg QD p.o., day 10, all animals)?
Answer: Its BW is 23.4 g.

Question: And the BW ([7]; DFX 30 mg/kg QD, Fpn127 120 mg/kg QD p.o., day 10, females)?
Answer: Its BW is 20.3 g.

Question: What about the BW ([7]; DFX 30 mg/kg QD, Fpn127 120 mg/kg QD p.o., day 10, males) of the same compound?
Answer: Its BW is 26.5 g.

Question: And the BW ([7]; DFX 30 mg/kg QD, Fpn127 120 mg/kg QD p.o., day 14, all animals)?
Answer: Its BW is 23.3 g.

Question: What about the BW ([7]; DFX 30 mg/kg QD, Fpn127 120 mg/kg QD p.o., day 14, females) of the same compound?
Answer: Its BW is 20.2 g.

Question: And the BW ([7]; DFX 30 mg/kg QD, Fpn127 120 mg/kg QD p.o., day 14, males)?
Answer: The BW was 26.3 g.

Question: And the BW ([7]; DFX 30 mg/kg QD, Fpn127 120 mg/kg QD p.o., day 17, all animals)?
Answer: The BW was 23.2 g.

Question: And the BW ([7]; DFX 30 mg/kg QD, Fpn127 120 mg/kg QD p.o., day 17, females)?
Answer: The BW was 19.7 g.

Question: And the BW ([7]; DFX 30 mg/kg QD, Fpn127 120 mg/kg QD p.o., day 17, males)?
Answer: The BW was 26.6 g.

Question: And the BW ([7]; DFX 30 mg/kg QD, Fpn127 120 mg/kg QD p.o., day 22, all animals)?
Answer: The BW was 23.3 g.

Question: What about the BW ([7]; DFX 30 mg/kg QD, Fpn127 120 mg/kg QD p.o., day 22, females) of the same compound?
Answer: Its BW is 19.8 g.

Question: What about the BW ([7]; DFX 30 mg/kg QD, Fpn127 120 mg/kg QD p.o., day 22, males) of the same compound?
Answer: The BW was 26.7 g.
